# Data taken from US6831100B2, “Menthyl benzoate formulations for external UV protection” (priority 2000, dated 2004).
# Assays:
# [1] = tested on: Escherichia coli wild type strain CA 8000; test: UV protection assay for bacteria cultivated in presence of the compounds; type: cell-based; details: for Titre estimated (cfu), Initial: bacteria grown in presence of compound, before UV exposure, control 3.73 × 10^7; for Killing % in comparison to the control: bacteria grown with compound, UV exposed
# From the text: (§1) UV light is not only harmful to humans but also to all other biological systems including microorganisms. The majority of the studies of the effect of UV light on microbes and its modes of action have shown the formation of thymidine dimers, which cause mutations and excessive exposure thus leads to death of the bacteria. […] Therefore, the assays involving the screening of potential UV protectant compounds against bacterial system exposure in presence and absence of test compound is easy, less time consuming and environmentally safe. We carried out simple experiments involving the bacterium Escherichia coli (Wild type) (Kumar, 5. 1976. Journal of Bacteriology, 125: 545-555) as the test system. Escherichia coli is a Gram negative bacterium and sensitive to ultraviolet light. The bacterial cells were grown in broth cultures were exposed to UV light for different time periods and the survival in terms of colony forming units was determined to estimate the killing percentage. The experiments comprised of a series of different steps in two distinct manners/routes (Example 1 and 2 below). In these examples, various quantities were mentioned are not confined to the said limits but can be variable depending upon the need and scale of experiment or screen to be employed. Two different approaches as described below were followed. In one case, the bacterial cells were grown in presence of the test compound and then exposed to UV while, in other case the bacteria were exposed to the two wavelength of UV light filtered through a UV transparent film coated with the compound and using uncoated film as control.
# UV Protection Assays for the Bacteria Cultivated in Presence of the Compounds
# (§2) Step A: Growing bacterial cultures: The wild type strain CA 8000 of Escherichia coli was in the assays. A single colony was inoculated in 5 ml Luria broth and incubated at 37° C. temperature for 16 hour in a water bath shaker. Bacteria were grown in presence of test compounds with plain LB as growth medium.
# Step B: Determining killing percentage of bacteria in relation to UV exposure time: This was done in the following steps.
# a. The broth culture was diluted to 10 times in sterile water.
# b. About 0.3 ml of the diluted bacterial suspension was transferred to the petriplates forming a thin layer at the bottom (in replicates).
# c. In the dark room a UV source was placed at least 10 cm above the plates (This distance may vary depending upon the need of the experiment)
# d. The cfu (colony forming unit) count was determined by serially diluting the exposed and control bacteria and plating on the Luria agar plate followed by counting the viable units of the bacteria forming colonies upon incubation at 37° C. overnight.
# These two exposure levels were used further in our experiment to test the efficacy of different compounds for UV protection.
# Step C: The bacterial cultures were grown in presence of different concentrations of the test compounds, exposed in the same way as in step B and viable cfu count was determined.
# [2] = tested on: Escherichia coli wild type strain CA 8000; test: UV protection assay through compound-coated UV transparent film; type: cell-based; details: for Protection (%) / Titre after UV exposure, film coated with menthyl benzoate / Killing (%), film coated with menthyl benzoate: film coated 50 μg per ml, 312 nm; for Titre after UV exposure, film coated with menthyl benzoate: initial titre 2.490 × 10^8
# From the text: as §1
# Exposure of the Bacteria to UV Light Through a UV Transparent Film Coated with the Compound
# as §2, with “wild type strain, CA 8000” for “wild type strain CA 8000”, “coli was used in the” for “coli was in the”
# Step B: The bacterial culture was harvested by centrifugation and pellet was suspended in equal amount of sterile distilled water. The bacterial pellet was harvested by centrifuging at 5000 RPM for 10 minute and suspended in 25 ml sterile distilled water.
# Step C: About 0.3 ml of the broth culture of the bacteria was transferred to petriplates forming a thin layer at the bottom (in replicates). At least 5 replicates per treatment were used along with control plates containing bacteria.
# Step D: The plates were covered with UV transparent film, which was coated with different concentrations of the test compounds.
# Step E: In the dark room a UV source was placed at least 10 cm above the plates (which may vary depending upon the experiment). In this invention, the UV torch emitting two-fixed wavelength (312 nm and 365 nm) was used.
# Step F: Light source was switched-on for different time intervals for the predetermined lethality levels based on the killing curve of control bacteria determined by UV exposure through uncoated film.
# Step G: The viable cfu (colony forming unit) count was determined by serially diluting the exposed and control bacteria and then plating on the Luria agar plates followed by counting the viable units of the bacteria forming colonies (Table 1).
# [3] = 120 seconds UV exposure (LD70), control 1.119 × 10^7
# [4] = 120 seconds UV exposure, control 70.00%
# [5] = 150 seconds UV exposure (LD80), control 0.746 × 10^7
# [6] = 150 seconds UV exposure, control 80.00%
# [7] = UV exposure equivalent to lethality level 10%
# [8] = UV exposure equivalent to lethality level 25%
# [9] = UV exposure equivalent to lethality level 50%
Compound,"Titre estimated (cfu), final after UV exposure [1, 3]","Killing (%) after UV exposure [1, 4] [%]","Titre estimated (cfu), final after UV exposure [1, 5]","Killing (%) after UV exposure [1, 6] [%]","Titre estimated (cfu), Initial [1]",Killing % in comparison to the control [1],UV protection in comparison to other known UV protectants ([1]; 50 μg/ml in culture),"Protection efficiency, comparison between compounds ([1]; descending series of the three compounds)","Safety to the bacterial system: titre (cfu) when bacteria are grown in presence of the compound ([1]; treated versus untreated cultures, no UV)","Protection (%) [2, 7] [%]","Titre after UV exposure, film coated with menthyl benzoate [2, 7]","Killing (%), film coated with menthyl benzoate ([2]; UV exposure equivalent to lethality level 10%, uncoated film 10.04%) [%]","Protection (%) [2, 8] [%]","Titre after UV exposure, film coated with menthyl benzoate [2, 8]","Killing (%), film coated with menthyl benzoate ([2]; UV exposure equivalent to lethality level 25%, uncoated film 25.02%) [%]","Protection (%) [2, 9] [%]","Titre after UV exposure, film coated with menthyl benzoate [2, 9]","Killing (%), film coated with menthyl benzoate ([2]; UV exposure equivalent to lethality level 50%, uncoated film 50.12%) [%]",Effect on percentage of lethality of the bacteria ([2]; at all levels of lethality tested),"Most optimum concentration coated on the film for UV protection ([2]; out of all concentrations coated on the film, higher concentration does not substantially increase protection) [μg per ml]"
"O=C(OCc1ccccc1)c1ccccc1 [Benzyl benzoate, Benzyl Benzoate]",1.460 × 10^7 cfu,60.86,1.240 × 10^7 cfu,66.75,3.73 × 10^7 cfu,much less in comparison to the control,–,–,–,–,–,–,–,–,–,–,–,–,–,–
O=C(CC(=O)c1ccccc1)c1ccccc1 [Dibenzoyl methane],1.162 × 10^7 cfu,68.85,1.050 × 10^7 cfu,71.85,3.73 × 10^7 cfu,much less in comparison to the control,–,–,–,–,–,–,–,–,–,–,–,–,–,–
"CC1CCC(C(C)C)C(OC(=O)c2ccccc2)C1 (stereo not shown) [Menthyl benzoate, Menthyl Benzoate]",1.660 × 10^7 cfu,55.49,1.300 × 10^7 cfu,65.15,3.73 × 10^7 cfu,–,significant protection,better protectant than the commercially used dibenzoyl methane,no decrease of titre was observed,70.01,2.415 × 10^8 cfu per ml,3.01,24.58,2.020 × 10^8 cfu per ml,18.87,12.67,1.400 × 10^8 cfu per ml,43.77,reduced the percentage of lethality of the bacteria,50
